Results as given in patent publication US9585876B2 (NuSirt Sciences, Inc., priority 2013, dated 2017).

What was measured:
[1] = test system: LDL receptor knockout (LDLRKO) mice; experiment: Plasma total cholesterol, cholesterol esters and triglycerides in LDLRKO mice on western diet, 28 days (Example 7); assay type: in vivo
Method: The mice were provided free access to an atherogenic western diet (WD) containing 0.21% cholesterol (by weight) and 40% calories from fat and water for 4 weeks prior to treatment. […] The treatments were administered for 28 days continuously.
Blood samples of the mice in all groups were obtained from tails of the mice at day 28 after the administration. The serum/plasma levels of triglyceride, total cholesterol and cholesterol esters were measured.

C. elegans = experiment: Lifespan of C. elegans (Example 8); assay type: in vivo, Caenorhabditis elegans; conditions: leucine (0.5 mM) or nicotinic acid (10 nM), each alone
Method: Eggs were hatched on a starved plate overnight. […] To study lifespan, 50 young adult worms were placed on NGM agar plates seeded with E. coli strain OP-50 (=day 1 of study). All treatments were added with the indicated concentrations to the agar plates. […] The worms were maintained at 21° C. throughout the duration of the study. Worms were transferred to new plates daily to eliminate progeny. […] The study was continued until the last animal was dead. Data were analyzed via Kaplan-Meier survival curves using Prism 6 (GraphPad Software) and statistical significance was determined by the Log-rank (Mantel-Cox) test.

[2] = oral dosing of about 3,000 mg; cited from earlier work
AMPK = conditions: 3T3-L1 adipocytes; concentrations of nicotinic acid <100 nM alone
Method: 3T3-L1 preadipocytes (American Type Culture Collection) were plated at a density of 8000 cells/cm2 (10 cm2 dish) and grown in Dulbecco's modified eagle's medium (DMEM) containing 10% fetal bovine serum (FBS), and antibiotics (growth medium) at 37° C. in 5% CO2. […] Preadipocytes were maintained in this differentiation medium for 3 days and subsequently cultured in growth medium. Cultures were re-fed every 2-3 days to allow >90% cells to reach fully differentiation before conducting chemical treatment.
Western blotting was performed with antibodies against AMPK and Phospho-AMPKα (Thr172) obtained from Cell Signaling (Danvers, Mass.). […] Total 30 μg of protein from the cell lysate was resolved on 10% Tris/HCL polyacrylamide gels (Criterion precast gel, Bio-Rad Laboratories, Hercules, Calif.), transferred to PVDF membranes, incubated in blocking buffer (3% BSA in TBS), incubated with primary antibody (P-AMPK), washed and incubated with secondary horseradish peroxidase-conjugated antibody.

[3] = test system: LDL receptor knockout (LDLRKO) mice; experiment: Lipid levels, atherosclerotic plaque and cutaneous vasodilation in LDLRKO mice on atherogenic diet, 60 days (Example 4); assay type: in vivo; conditions: for HDL level in the blood stream compared to negative control group (atherogenic diet only) / triglyceride, LDL and cholesterol levels in the blood stream compared to negative control group (atherogenic diet only): 60 days
Method: All chemicals are purchased from Sigma.
Cutaneous vasodilation is measured by laser-Doppler flowmeter.

[4] = test system: Patients that are pre-diagnosed with hyperlipidemia; experiment: Lipid levels and cutaneous vasodilation in hyperlipidemia patients, 60 days (Example 5); assay type: in vivo, human; conditions: for HDL level compared to day 0 values / triglyceride, LDL and cholesterol levels compared to day 0 values: orally twice a day, 60 days
Method: Patients that are pre-diagnosed with hyperlipidemia are admitted for the randomized and double blind study. […] The treatments are administered orally twice a day, for 60 days continuously.
Blood samples of the patients in all groups are obtained from at day 0, 30 and 60 after the administration. The serum/plasma levels of triglyceride, cholesterol, LDL and HDL are measured. Cutaneous vasodilation is measured by laser-Doppler flowmeter and the discomfort level described by the patients.

[5] = test system: Patients that experience acute chest pain and are pre-diagnosed with hyperlipidemia; experiment: Atherosclerotic plaque size by quantitative coronary angiography in patients, 3 years (Example 6); assay type: in vivo, human; conditions: orally twice a day, (a) 50 mg nicotinic acid alone, (b) 50 mg nicotinic acid + 1135 mg leucine, (c) 50 mg nicotinic acid + 1135 mg leucine + 50 mg resveratrol, (d) 1135 mg leucine + 50 mg resveratrol
Method: The treatments are administered orally twice a day, for 3 years continuously. The size of atherosclerotic plaque is measured at day 0, months 6, 12, 18, 24, 30 and 36 by quantitative coronary angiography.

Sirt1 = Sirt1 level by Western blotting in C2C12 myotubes (Example 1)
[6] = group (e) 10 g nicotinic acid/kg diet alone
[7] = group (e) 3000 mg nicotinic acid alone

CC(C)C[C@H](N)C(=O)O [leucine]
effect on cholesterol esters ([1]; leucine 24 g/kg diet alone): no independent effect | effect on total cholesterol ([1]; leucine 24 g/kg diet alone): no independent effect | effect on lifespan (C. elegans): no independent effect

NC(=O)c1ccc[n+]([C@@H]2O[C@H](CO)[C@@H](O)[C@H]2O)c1 [nicotinamide riboside]
circulating level of nicotinic acid or nicotinamide riboside in a subject [2]: about 10 μM

O=C(O)c1cccnc1 [nicotinic acid]
effect of nicotinic acid alone on the variable studied (P-AMPK/AMPK), dose-response study (AMPK): no effect | cutaneous vasodilation compared to all the other groups including control groups ([3]; 10 g of nicotinic acid/kg diet alone, laser-Doppler flowmeter): significant higher | HDL level in the blood stream compared to negative control group (atherogenic diet only) [3, 6]: significantly higher | triglyceride, LDL and cholesterol levels in the blood stream compared to negative control group (atherogenic diet only) [3, 6]: significantly lower | HDL level in the blood stream compared to negative control group (atherogenic diet only) ([3]; per kg diet: (a) 250 mg nicotinic acid alone, (b) 250 mg nicotinic acid + 24 g leucine, (c) 50 mg nicotinic acid + 24 g leucine + 12.5 mg resveratrol): similar, without statistically significant difference | triglyceride, LDL and cholesterol levels in the blood stream compared to negative control group (atherogenic diet only) ([3]; per kg diet: (a) 250 mg nicotinic acid alone, (b) 250 mg nicotinic acid + 24 g leucine, (c) 50 mg nicotinic acid + 24 g leucine + 12.5 mg resveratrol, (d) 24 g leucine + 12.5 mg resveratrol): similar, without statistically significant difference | atherosclerotic lesion size in the aorta ([3]; day 60, group (e) 10 g nicotinic acid/kg diet alone): significantly reduced | atherosclerotic lesion size in the aorta ([3]; day 60, per kg diet: (a) 250 mg nicotinic acid alone, (b) 250 mg nicotinic acid + 24 g leucine, (c) 50 mg nicotinic acid + 24 g leucine + 12.5 mg resveratrol, (d) 24 g leucine + 12.5 mg resveratrol): No significant reduction | cutaneous vasodilation compared to all the other groups including placebo ([4]; 3000 mg of nicotinic acid alone, laser-Doppler flowmeter and discomfort level): significant higher | HDL level compared to day 0 values ([4]; (a) 50 mg nicotinic acid alone, (b) 50 mg nicotinic acid + 1135 mg leucine, (c) 50 mg nicotinic acid + 1135 mg leucine + 50 mg resveratrol): similar, without statistically significant difference | triglyceride, LDL and cholesterol levels compared to day 0 values ([4]; (a) 50 mg nicotinic acid alone, (b) 50 mg nicotinic acid + 1135 mg leucine, (c) 50 mg nicotinic acid + 1135 mg leucine + 50 mg resveratrol, (d) 1135 mg leucine + 50 mg resveratrol): similar, without statistically significant difference | HDL level compared to day 0 values [4, 7]: significantly higher | triglyceride, LDL and cholesterol levels compared to day 0 values [4, 7]: significantly lower | atherosclerotic plaque (lesion) size compared to day 0 values [5]: similar, without statistically significant difference | decrease in cholesterol esters ([1]; nicotinic acid 1,000 mg/kg diet, p<0.002): 28% | decrease in total cholesterol ([1]; nicotinic acid 1,000 mg/kg diet, p<0.01): 20% | effect on lifespan (C. elegans): no independent effect | circulating level of nicotinic acid or nicotinamide riboside in a subject [2]: about 10 μM | Sirt1 levels (Sirt1; 24 hours, nicotinic acid 10 nM, leucine 0.5 mM, nicotinic acid alone): did not have a significant effect | effect of nicotinic acid alone on the variable studied (Sirt1), dose-response study (Sirt1; concentrations of nicotinic acid <100 nM alone): no effect
